According to patent US20150038545A1, “HYDROXYPHENYL PYRROLE COMPOUNDS CONTAINING AN HYDROXAMIC ACID AS HDAC INHIBITORS AND MEDICINAL APPLICATIONS THEREOF” (UNIVERSIDAD DEL PAÍS VASCO, priority 2011, published 2015):
Each block holds one compound with its values, some of them ahead of it.

What was measured:
[1] = system: HT-1080; test: Cancer cell growth inhibition (CellTiter-Glo), HT-1080; format: cell-based; conditions: Homo sapiens; Fibrosarcoma, HT-1080, 72 h treatment
Method: (§1) Cell culture-based assays were used to evaluate the ability of compounds of the invention to inhibit cancer cell growth.
(§2) Cells were obtained from the American Type Culture Collection (ATCC). Cells were cultured at 37° C. with 5% CO2 in the appropriate growth medium (see table below), and harvested respectively during the logarithmic growth period and counted with hemocytometer. The cell viability was examined by trypan blue exclusion. Cell concentrations were adjusted to 5.56×10^4 cells/ml with respective medium.
(§3) Stock solutions of test compounds and positive drugs Doxorubicin (Zhejiang, Haizheng, China), Cisplatin (Nanjing Zhiyao, China) and Mitomycin (Zhejiang, Haizheng, China) were prepared in dimethyl sulphoxide (DMSO) or PBS at 20 mM.
(§4) In order to determine the IC50 for each compound, experiments were carried out in 96-well plates and the cell lines seeded at a density of 5,000 cells/well. […] All treatments were performed in triplicate. 10 μl of drug solution was added to each well and incubated for 72 hours. At the end of the incubation, 100 μl of the CellTiter-Glo Reagent were added to each well and the contents were mixed for 2 munites on an orbital shaker to induce cell lysis. The plate was incubated at room temperature for 10 minutes to stabilize luminiscent signal, and luminiscent was recorded. […] In order to calculate IC50 values, dose-responsive curves were fitted using nonlinear regression model with a sigmoidal dose response.

[2] = system: MCF-7; test: Cancer cell growth inhibition (CellTiter-Glo), MCF-7; format: cell-based, Human; conditions: Breast Cancer, MCF-7, 72 h treatment
Method: as §1, §2, §3, §4

[3] = system: SK-BR-3; test: Cancer cell growth inhibition (CellTiter-Glo), SK-BR-3; format: cell-based, Human; conditions: Breast Cancer, SK-BR-3, 72 h treatment
Method: as §1, §2, §3, §4

[4] = system: DU145; test: Cancer cell growth inhibition (CellTiter-Glo), DU145; format: cell-based, Human; conditions: Prostate Cancer, DU145, 72 h treatment
Method: as §1, §2, §3, §4

[5] = system: LNCaP; test: Cancer cell growth inhibition (CellTiter-Glo), LNCaP; format: cell-based, Human; conditions: Prostate Cancer, 72 h treatment
Method: as §1, §2, §3, §4

[6] = system: PC-3; test: Cancer cell growth inhibition (CellTiter-Glo), PC-3; format: cell-based, Human; conditions: Prostate Cancer, PC-3, 72 h treatment
Method: as §1, §2, §3, §4

[7] = system: DLD-1; test: Cancer cell growth inhibition (CellTiter-Glo), DLD-1; format: cell-based, Human; conditions: Colorectal Cancer, DLD-1, 72 h treatment
Method: as §1, §2, §3, §4

[8] = system: HT-29; test: Cancer cell growth inhibition (CellTiter-Glo), HT-29; format: cell-based, Human; conditions: Colorectal Cancer, HT-29, 72 h treatment
Method: as §1, §2, §3, §4

[9] = system: LoVo; test: Cancer cell growth inhibition (CellTiter-Glo), LoVo; format: cell-based, Human; conditions: Colorectal Cancer, 72 h treatment
Method: as §1, §2, §3, §4

[10] = system: SW480; test: Cancer cell growth inhibition (CellTiter-Glo), SW480; format: cell-based, Human; conditions: Colorectal Cancer, SW480, 72 h treatment
Method: as §1, §2, §3, §4

[11] = system: A549; test: Cancer cell growth inhibition (CellTiter-Glo), A549; format: cell-based, Human; conditions: Lung Cancer, A549, 72 h treatment
Method: as §1, §2, §3, §4

[12] = system: Calu-6; test: Cancer cell growth inhibition (CellTiter-Glo), Calu-6; format: cell-based, Human; conditions: Lung Cancer, Calu-6, 72 h treatment
Method: as §1, §2, §3, §4

[13] = system: NCI-H1703; test: Cancer cell growth inhibition (CellTiter-Glo), NCI-H1703; format: cell-based, Human; conditions: Lung Cancer, NCI-H1703, 72 h treatment
Method: as §1, §2, §3, §4

[14] = system: NCI-H460; test: Cancer cell growth inhibition (CellTiter-Glo), NCI-H460; format: cell-based, Human; conditions: Lung Cancer, NCI-H460, 72 h treatment
Method: as §1, §2, §3, §4

[15] = system: SK-MES-1; test: Cancer cell growth inhibition (CellTiter-Glo), SK-MES-1; format: cell-based, Human; conditions: Lung Cancer, SK-MES-1, 72 h treatment
Method: as §1, §2, §3, §4

[16] = system: U-87MG; test: Cancer cell growth inhibition (CellTiter-Glo), U-87MG; format: cell-based, Human; conditions: Glioblastoma, 72 h treatment
Method: as §1, §2, §3, §4

[17] = system: Bx-PC-3; test: Cancer cell growth inhibition (CellTiter-Glo), Bx-PC-3; format: cell-based, Human; conditions: Pancreatic Cancer, Bx-PC-3, 72 h treatment
Method: as §1, §2, §3, §4

[18] = system: PANC-1; test: Cancer cell growth inhibition (CellTiter-Glo), PANC-1; format: cell-based, Human; conditions: Pancreatic Cancer, PANC-1, 72 h treatment
Method: as §1, §2, §3, §4

[19] = system: 786-O; test: Cancer cell growth inhibition (CellTiter-Glo), 786-O; format: cell-based, Human; conditions: Kidney Cancer, 72 h treatment
Method: as §1, §2, §3, §4

[20] = system: Hep3B; test: Cancer cell growth inhibition (CellTiter-Glo), Hep3B; format: cell-based, Human; conditions: Liver Cancer, 72 h treatment
Method: as §1, §2, §3, §4

[21] = system: A375; test: Cancer cell growth inhibition (CellTiter-Glo), A375; format: cell-based, Human; conditions: Melanoma, A375, 72 h treatment
Method: as §1, §2, §3, §4

[22] = system: SK-MEL-5; test: Cancer cell growth inhibition (CellTiter-Glo), SK-MEL-5; format: cell-based, Human; conditions: Melanoma, SK-MEL-5, 72 h treatment
Method: as §1, §2, §3, §4

[23] = system: CNE2; test: Cancer cell growth inhibition (CellTiter-Glo), CNE2; format: cell-based, Human; conditions: Nasopharyngeal, CNE2, 72 h treatment
Method: as §1, §2, §3, §4

[24] = system: MCG803; test: Cancer cell growth inhibition (CellTiter-Glo), MCG803; format: cell-based, Human; conditions: Gastric Cancer, MCG803, 72 h treatment
Method: as §1, §2, §3, §4

[25] = system: NCI-N87; test: Cancer cell growth inhibition (CellTiter-Glo), NCI-N87; format: cell-based, Human; conditions: Gastric Cancer, NCI-N87, 72 h treatment
Method: as §1, §2, §3, §4

[26] = system: BGC-823; test: Cancer cell growth inhibition (CellTiter-Glo), BGC-823; format: cell-based, Human; conditions: Gastric Cancer, BGC-823, 72 h treatment
Method: as §1, §2, §3, §4

[27] = system: SK-OV-3; test: Cancer cell growth inhibition (CellTiter-Glo), SK-OV-3; format: cell-based, Human; conditions: Ovarian Cancer, SK-OV-3, 72 h treatment
Method: as §1, §2, §3, §4

[28] = system: OVCAR3; test: Cancer cell growth inhibition (CellTiter-Glo), OVCAR3; format: cell-based, Human; conditions: Ovarian Cancer, OVCAR3, 72 h treatment
Method: as §1, §2, §3, §4

[29] = system: K562; test: Cancer cell growth inhibition (CellTiter-Glo), K562; format: cell-based, Human; conditions: CML, K562, 72 h treatment
Method: as §1, §2, §3, §4

[30] = system: KB; test: Cancer cell growth inhibition (CellTiter-Glo), KB; format: cell-based, Human; conditions: Oral Cancer, 72 h treatment
Method: as §1, §2, §3, §4

[31] = system: RPMI-8226; test: Cancer cell growth inhibition (CellTiter-Glo), RPMI-8226; format: cell-based, Human; conditions: Orthotopic Multiple Myeloma, RPMI-8226, 72 h treatment
Method: as §1, §2, §3, §4

[32] = system: BT474; test: Cancer cell growth inhibition (CellTiter-Glo), BT474; format: cell-based; conditions: Homo sapiens, BT-474; Breast Cancer, BT474, 72 h treatment
Method: as §1, §2, §3, §4

[33] = system: MDA-MB-231; test: Cancer cell growth inhibition (CellTiter-Glo), MDA-MB-231; format: cell-based; conditions: Homo sapiens; Breast Cancer, MDA-MB-231, 72 h treatment
Method: as §1, §2, §3, §4

[34] = system: Colo205; test: Cancer cell growth inhibition (CellTiter-Glo), Colo205; format: cell-based; conditions: Homo sapiens, COLO 205; Colorectal Cancer, Colo205, 72 h treatment
Method: as §1, §2, §3, §4

[35] = system: HCT-116; test: Cancer cell growth inhibition (CellTiter-Glo), HCT-116; format: cell-based; conditions: Homo sapiens; Colorectal Cancer, HCT-116, 72 h treatment
Method: as §1, §2, §3, §4

[36] = system: SW620; test: Cancer cell growth inhibition (CellTiter-Glo), SW620; format: cell-based; conditions: Homo sapiens, SW-620; Colorectal Cancer, SW620, 72 h treatment
Method: as §1, §2, §3, §4

[37] = system: MIAPaCa-2; test: Cancer cell growth inhibition (CellTiter-Glo), MIAPaCa-2; format: cell-based; conditions: Homo sapiens, MIA PaCa-2; Pancreatic Cancer, MIAPaCa-2, 72 h treatment
Method: as §1, §2, §3, §4

[38] = system: HepG2; test: Cancer cell growth inhibition (CellTiter-Glo), HepG2; format: cell-based; conditions: Homo sapiens; Liver Cancer, HepG2, 72 h treatment
Method: as §1, §2, §3, §4

[39] = system: SK-HEP-1; test: Cancer cell growth inhibition (CellTiter-Glo), SK-HEP-1; format: cell-based; conditions: Homo sapiens, SK-HEP1; Liver Cancer, SK-HEP-1, 72 h treatment
Method: as §1, §2, §3, §4

[40] = system: 143b; test: Cancer cell growth inhibition (CellTiter-Glo), 143b; format: cell-based; conditions: Homo sapiens, Osteosarcoma, 72 h treatment
Method: as §1, §2, §3, §4

IC50 [1]: 0.27 µM
Structure (SMILES): COc1cccc2c1C(=O)c1c(O)c3c(c(O)c1C2=O)C[C@@](O)(C(=O)CO)C[C@@H]3O[C@H]1C[C@H](N)[C@H](O)[C@H](C)O1 [Doxorubicin, reference compound]

Structure (SMILES): N.N.[Cl][Pt][Cl] [Cisplatin, reference compound]
IC50 [2]: 22.2 µM | IC50 [3]: 3.18 µM | IC50 [4]: 1.02 µM | IC50 [5]: 6.51 µM | IC50 [6]: 59.5 µM | IC50 [7]: 11.3 µM | IC50 [8]: 12.2 µM | IC50 [9]: 10.4 µM | IC50 [10]: 46.6 µM | IC50 [11]: 8.22 µM | IC50 [12]: 2.45 µM | IC50 [13]: 7.56 µM | IC50 [14]: 1.6 µM | IC50 [15]: 9.49 µM | IC50 [16]: 4.76 µM | IC50 [17]: 4.73 µM | IC50 [18]: 22 µM | IC50 [19]: 3.23 µM | IC50 [20]: 3.96 µM | IC50 [21]: 3.16 µM | IC50 [22]: 5.81 µM | IC50 [23]: 6.58 µM | IC50 [24]: 5.08 µM | IC50 [25]: 4.21 µM | IC50 [26]: 1.15 µM | IC50 [27]: 9.88 µM | IC50 [28]: 4.47 µM | IC50 [29]: 14.8 µM | IC50 [30]: 10.4 µM | IC50 [31]: 4.57 µM

Structure (SMILES): CO[C@@]12[C@H](COC(N)=O)C3=C(C(=O)C(C)=C(N)C3=O)N1C[C@@H]1N[C@@H]12 [Mitomycin, reference compound]
IC50 [32]: 30.3 µM | IC50 [33]: 19.8 µM | IC50 [34]: 2.67 µM | IC50 [35]: 0.82 µM | IC50 [36]: 1.22 µM | IC50 [37]: 0.63 µM | IC50 [38]: 0.91 µM | IC50 [39]: 8.12 µM | IC50 [40]: 0.64 µM
